From PubChem BioAssay (NCI)
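Grown in 96-well plates, cells were treated for 48 hours with each compound at five concentrations. Insufficient inhibition: endpoint recorded as highest concentration tested. At the GI50, growth is halved. TGI is the concentration that stops growth completely.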

Experiments:
Assay in all cases: growth of human tumour cells (NCI), 48 h; in the data active = GI50 below about 0.43 µM; inactive = the rest
NCI/ADR-RES ovarian = system: NCI/ADR-RES ovarian
A549 NSCLC = system: A549 NSCLC
T-47D breast = system: T-47D breast
OVCAR-5 ovarian = system: OVCAR-5 ovarian
SN12C renal = system: SN12C renal
SK-MEL-5 melanoma = system: SK-MEL-5 melanoma
DU-145 prostate = system: DU-145 prostate
SR leukemia = system: SR leukemia
HOP-92 NSCLC = system: HOP-92 NSCLC
OVCAR-4 ovarian = system: OVCAR-4 ovarian
PC-3 prostate = system: PC-3 prostate
MDA-MB-435 = system: MDA-MB-435
RXF 393 renal = system: RXF 393 renal
BT-549 breast = system: BT-549 breast
ACHN renal = system: ACHN renal
HT29 colon = system: HT29 colon
OVCAR-3 ovarian = system: OVCAR-3 ovarian
SW-620 colon = system: SW-620 colon
A498 renal = system: A498 renal
SK-MEL-2 melanoma = system: SK-MEL-2 melanoma
IGROV1 ovarian = system: IGROV1 ovarian
NCI-H226 lung = system: NCI-H226 lung
UACC-62 melanoma = system: UACC-62 melanoma
KM12 colon = system: KM12 colon
SNB-75 CNS = system: SNB-75 CNS
OVCAR-8 ovarian = system: OVCAR-8 ovarian
786-0 renal = system: 786-0 renal
SK-OV-3 ovarian = system: SK-OV-3 ovarian
CAKI-1 renal = system: CAKI-1 renal
NCI-H522 lung = system: NCI-H522 lung
K-562 leukemia = system: K-562 leukemia
UO-31 renal = system: UO-31 renal
COLO 205 colon = system: COLO 205 colon
NCI-H23 lung = system: NCI-H23 lung
EKVX NSCLC = system: EKVX NSCLC
MOLT-4 leukemia = system: MOLT-4 leukemia
HCT-15 colon = system: HCT-15 colon
SF-268 CNS = system: SF-268 CNS
UACC-257 melanoma = system: UACC-257 melanoma
NCI-H460 lung = system: NCI-H460 lung
U251 CNS = system: U251 CNS
SK-MEL-28 melanoma = system: SK-MEL-28 melanoma
MDA-MB-231 breast = system: MDA-MB-231 breast
LOX IMVI melanoma = system: LOX IMVI melanoma
SNB-19 CNS = system: SNB-19 CNS
HS 578T breast = system: HS 578T breast
TK-10 renal = system: TK-10 renal
MALME-3M melanoma = system: MALME-3M melanoma
RPMI-8226 leukemia = system: RPMI-8226 leukemia
SF-295 CNS = system: SF-295 CNS
M14 melanoma = system: M14 melanoma
HCC-2998 colon = system: HCC-2998 colon
HOP-62 NSCLC = system: HOP-62 NSCLC
CCRF-CEM leukemia = system: CCRF-CEM leukemia
SF-539 CNS = system: SF-539 CNS

CCN(CC)CCNC(=O)c1cc2cc(NC(=O)c3cc4cc(NC(=O)c5cc6cc([N+](=O)[O-])ccc6[nH]5)ccc4[nH]3)ccc2[nH]1
14.4 µM: TGI (SR leukemia)
67.3 µM: TGI (CCRF-CEM leukemia)
> 100 µM: TGI (NCI/ADR-RES ovarian) | TGI (A549 NSCLC) | TGI (T-47D breast) | TGI (OVCAR-5 ovarian) | TGI (SN12C renal) | TGI (SK-MEL-5 melanoma) | TGI (DU-145 prostate) | TGI (HOP-92 NSCLC) | TGI (OVCAR-4 ovarian) | TGI (PC-3 prostate) | TGI (MDA-MB-435) | TGI (RXF 393 renal) | TGI (BT-549 breast) | TGI (ACHN renal) | TGI (HT29 colon) | TGI (OVCAR-3 ovarian) | TGI (SW-620 colon) | TGI (A498 renal) | TGI (SK-MEL-2 melanoma) | TGI (IGROV1 ovarian) | TGI (NCI-H226 lung) | TGI (UACC-62 melanoma) | TGI (KM12 colon) | TGI (SNB-75 CNS) | TGI (OVCAR-8 ovarian) | TGI (786-0 renal) | TGI (SK-OV-3 ovarian) | TGI (CAKI-1 renal) | TGI (NCI-H522 lung) | TGI (K-562 leukemia) | TGI (UO-31 renal) | TGI (COLO 205 colon) | TGI (NCI-H23 lung) | TGI (EKVX NSCLC) | TGI (MOLT-4 leukemia) | TGI (HCT-15 colon) | TGI (SF-268 CNS) | TGI (UACC-257 melanoma) | TGI (NCI-H460 lung) | TGI (U251 CNS) | TGI (SK-MEL-28 melanoma) | TGI (MDA-MB-231 breast) | TGI (LOX IMVI melanoma) | TGI (SNB-19 CNS) | TGI (HS 578T breast) | TGI (TK-10 renal) | TGI (MALME-3M melanoma) | TGI (RPMI-8226 leukemia) | TGI (SF-295 CNS) | TGI (M14 melanoma) | TGI (HCC-2998 colon) | TGI (HOP-62 NSCLC)

O=C(Nc1ccc([N+](=O)[O-])cc1)c1ccc([N+](=O)[O-])cc1
> 100 µM: TGI (SNB-75 CNS) | TGI (SF-295 CNS)

O=C1/C(=C\c2cn(CC(O)CN3CCCCC3)c3ccccc23)c2ccccc2N1c1c(Cl)cccc1Cl (stereo not given)
3.13 µM: TGI (SK-OV-3 ovarian)
3.1 µM: TGI (M14 melanoma)
3.16 µM: TGI (HCC-2998 colon)
3.2 µM: TGI (HOP-92 NSCLC) | TGI (UACC-62 melanoma)
3.24 µM: TGI (A498 renal)
3.3 µM: TGI (SF-295 CNS)
3.18 µM: TGI (SF-539 CNS) | TGI (BT-549 breast)
2.92 µM: TGI (OVCAR-5 ovarian)
3.37 µM: TGI (KM12 colon)
2.63 µM: TGI (SNB-75 CNS)
3.29 µM: TGI (TK-10 renal)
5.78 µM: TGI (HS 578T breast)
2.81 µM: TGI (PC-3 prostate)
3.21 µM: TGI (MDA-MB-231 breast)
3.32 µM: TGI (DU-145 prostate)
inactive: GI50 (SF-539 CNS) 1.68 µM | GI50 (OVCAR-5 ovarian) 1.57 µM | GI50 (DU-145 prostate) 1.88 µM | GI50 (HOP-92 NSCLC) 1.59 µM | GI50 (PC-3 prostate) 1.41 µM | GI50 (BT-549 breast) 1.71 µM | GI50 (A498 renal) 1.7 µM | GI50 (UACC-62 melanoma) 1.76 µM | GI50 (KM12 colon) 1.89 µM | GI50 (SNB-75 CNS) 1.3 µM | GI50 (SK-OV-3 ovarian) 1.63 µM | GI50 (MDA-MB-231 breast) 1.79 µM | GI50 (HS 578T breast) 2.27 µM | GI50 (TK-10 renal) 1.82 µM | GI50 (SF-295 CNS) 1.8 µM | GI50 (M14 melanoma) 1.66 µM | GI50 (HCC-2998 colon) 1.73 µM
